One experiment addresses T1, Recombinant IKKα (Homo sapiens, UniProt O15111).
T1 construct: purchased Millipore, Dundee, UK
T1 sequence (O15111 1-745): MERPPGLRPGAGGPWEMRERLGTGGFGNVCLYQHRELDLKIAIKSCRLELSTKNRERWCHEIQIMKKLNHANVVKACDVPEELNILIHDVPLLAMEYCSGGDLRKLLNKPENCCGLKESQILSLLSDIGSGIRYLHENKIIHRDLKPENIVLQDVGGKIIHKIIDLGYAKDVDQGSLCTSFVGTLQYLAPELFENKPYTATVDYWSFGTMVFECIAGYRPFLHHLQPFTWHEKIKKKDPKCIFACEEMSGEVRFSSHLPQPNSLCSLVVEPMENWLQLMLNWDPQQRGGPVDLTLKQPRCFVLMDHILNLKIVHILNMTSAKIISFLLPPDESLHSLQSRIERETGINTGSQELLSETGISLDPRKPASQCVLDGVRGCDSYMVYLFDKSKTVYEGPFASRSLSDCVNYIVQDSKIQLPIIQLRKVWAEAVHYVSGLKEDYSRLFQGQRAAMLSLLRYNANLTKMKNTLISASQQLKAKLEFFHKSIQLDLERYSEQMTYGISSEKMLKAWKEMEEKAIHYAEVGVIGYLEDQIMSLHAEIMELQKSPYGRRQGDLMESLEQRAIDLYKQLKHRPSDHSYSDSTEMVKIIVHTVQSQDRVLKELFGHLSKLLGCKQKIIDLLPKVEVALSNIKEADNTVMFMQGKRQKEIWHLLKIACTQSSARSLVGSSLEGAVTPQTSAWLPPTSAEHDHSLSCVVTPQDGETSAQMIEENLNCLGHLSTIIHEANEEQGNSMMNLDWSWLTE
Description: DELFIA IKKα kinase assay (apparent Ki, Cheng-Prusoff). It is filed as biochemical. Put shortly:
(§1)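 Recombinant IKKα or IKKβ (37 nM) with 0.375 μM biotinylated IκB-α (Ser32) peptide and 40 μM ATP in 40 mM Tris-HCl pH 7.5, 20 mM MgCl2, 60 min at 30° C. Phospho-substrate captured on streptavidin and detected by anti-phospho-IκB-α plus europium anti-mouse IgG time-resolved fluorescence; apparent Ki via Cheng-Prusoff.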

In another experiment the target is T2, Recombinant IKKβ (Homo sapiens, UniProt O14920).
T2 construct: purchased Millipore, Dundee, UK
T2 sequence (O14920 1-756): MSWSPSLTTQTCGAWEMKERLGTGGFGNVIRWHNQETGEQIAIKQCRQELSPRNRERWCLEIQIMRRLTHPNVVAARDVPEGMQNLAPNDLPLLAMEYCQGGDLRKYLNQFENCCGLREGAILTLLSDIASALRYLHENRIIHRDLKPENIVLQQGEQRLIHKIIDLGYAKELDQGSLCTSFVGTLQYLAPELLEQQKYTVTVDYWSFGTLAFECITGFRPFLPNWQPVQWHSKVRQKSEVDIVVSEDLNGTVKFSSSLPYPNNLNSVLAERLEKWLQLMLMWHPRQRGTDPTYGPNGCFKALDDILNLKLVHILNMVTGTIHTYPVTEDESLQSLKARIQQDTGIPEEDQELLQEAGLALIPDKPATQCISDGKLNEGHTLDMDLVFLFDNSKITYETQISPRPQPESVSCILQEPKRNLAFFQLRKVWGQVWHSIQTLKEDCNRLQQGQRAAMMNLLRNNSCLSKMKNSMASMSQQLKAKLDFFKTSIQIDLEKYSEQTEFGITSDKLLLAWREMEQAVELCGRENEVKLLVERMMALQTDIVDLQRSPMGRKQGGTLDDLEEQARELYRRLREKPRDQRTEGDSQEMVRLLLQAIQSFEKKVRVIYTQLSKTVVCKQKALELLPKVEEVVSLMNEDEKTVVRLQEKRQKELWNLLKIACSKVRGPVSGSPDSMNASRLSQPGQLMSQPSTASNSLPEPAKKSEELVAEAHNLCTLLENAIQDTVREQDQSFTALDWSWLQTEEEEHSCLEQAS
As to the kind of experiment: DELFIA IKKβ kinase assay (apparent Ki, Cheng-Prusoff). The format is biochemical. Put shortly: as §1

Setting [1] is: non-italicised figure: DELFIA assay.
Setting [2] is: DELFIA assay (first line of an example).

In the case of `CC(=O)Nc1cc(-c2cc(C#CC(C)(C)C)c3[nH]nc(N)c3c2)ccn1` [Example 164, N-(4-(3-Amino-7-(3,3-dimethylbut-1-yn-1-yl)-1H-indazol-5-yl)pyridin-2-yl)acetamide], the Ki turned out to be 15 nM at Recombinant IKKα (setting [1]) and 350 nM at Recombinant IKKβ (setting [1]).

For the molecule `CCC(=O)Nc1cc(-c2cc(C#CC(C)(C)C)c3[nH]nc(N)c3c2)ccn1` [Example 165, N-(4-(3-Amino-7-(3,3-dimethylbut-1-yn-1-yl)-1H-indazol-5-yl)pyridin-2-yl)propionamide], the Ki on Recombinant IKKα (setting [1]) came out at 7 nM; at Recombinant IKKβ (setting [1]) it was 780 nM.

For `CC(C)(C)C#Cc1cc(-c2ccnc(NC(=O)C3CC3)c2)cc2c(N)n[nH]c12` [Example 167, N-(4-(3-Amino-7-(3,3-dimethylbut-1-yn-1-yl)-1H-indazol-5-yl)pyridin-2-yl)cyclopropane carboxamide], the Ki on Recombinant IKKα (setting [1]) was determined as 15 nM; at Recombinant IKKβ (setting [1]), 1110 nM.

As to `CC(C)C(=O)Nc1cc(-c2cc(C#CC(C)(C)C)c3[nH]nc(N)c3c2)ccn1` [Example 168, N-(4-(3-Amino-7-(3,3-dimethylbut-1-yn-1-yl)-1H-indazol-5-yl)pyridin-2-yl)isobutyramide], the Ki at Recombinant IKKα (setting [1]) was 273 nM; at Recombinant IKKβ (setting [1]), 2580 nM.

For `CC(C)(C)C#Cc1cc(-c2ccnc(NC(=O)CC3CC3)c2)cc2c(N)n[nH]c12` [Example 170, N-(4-(3-Amino-7-(3,3-dimethylbut-1-yn-1-yl)-1H-indazol-5-yl)pyridin-2-yl)-2-cyclopropylacetamide], the results for the Ki at Recombinant IKKα (setting [1]) and on Recombinant IKKβ (setting [1]) were 26 nM and 1550 nM, respectively.

As to `CC(C)CC(=O)Nc1cc(-c2cc(C#CC(C)(C)C)c3[nH]nc(N)c3c2)ccn1` [Example 171, N-(4-(3-Amino-7-(3,3-dimethylbut-1-yn-1-yl)-1H-indazol-5-yl)pyridine-2-yl)-3-methylbutanamide], the Ki came out at 122 nM at Recombinant IKKα (setting [1]) and 5680 nM at Recombinant IKKβ (setting [1]).

For `CC(C)(C)C#Cc1cc(-c2ccnc(NC(=O)C3CCC3)c2)cc2c(N)n[nH]c12` [Example 172, N-(4-(3-Amino-7-(3,3-dimethylbut-1-yn-1-yl)-1H-indazol-5-yl)pyridin-2-yl)cyclobutanecarboxamide], the Ki at Recombinant IKKα (setting [1]) was 89 nM; at Recombinant IKKβ (setting [1]), 3330 nM.

With `CC(C)(C)C#Cc1cc(-c2ccnc(NC(=O)C3CCCC3)c2)cc2c(N)n[nH]c12` [Example 173, N-(4-(3-Amino-7-(3,3-dimethylbut-1-yn-1-yl)-1H-indazol-5-yl)pyridin-2-yl)cyclopentanecarboxamide], the values for the Ki on Recombinant IKKα (setting [1]) and on Recombinant IKKβ (setting [1]) were 298 nM and 23800 nM, respectively.

In the case of `CC(C)(C)C#Cc1cc(-c2ccnc(NC(=O)CO)c2)cc2c(N)n[nH]c12` [Example 174, N-(4-(3-Amino-7-(3,3-dimethylbut-1-yn-1-yl)-1H-indazol-5-yl)pyridin-2-yl)-2-hydroxyacetamide], the results for the Ki at Recombinant IKKα (setting [1]) and on Recombinant IKKβ (setting [1]) were 20 nM and 611 nM, respectively.

Consider `COCC(=O)Nc1cc(-c2cc(C#CC(C)(C)C)c3[nH]nc(N)c3c2)ccn1` [Example 175, N-(4-(3-Amino-7-(3,3-dimethylbut-1-yn-1-yl)-1H-indazol-5-yl)pyridin-2-yl)-2-methoxyacetamide], for which the figures for the Ki at Recombinant IKKα (setting [1]) and at Recombinant IKKβ (setting [1]) were 24 nM and 1110 nM, respectively.

As to `COC(=O)Nc1cc(-c2cc(C#CC3CC3)c3[nH]nc(N)c3c2)ccn1` [Example 179, Methyl (4-(3-amino-7-(cyclopropylethynyl)-1H-indazol-5yl)-pyridin-2-yl)carbamate], the Ki is 10 nM on Recombinant IKKα (setting [1]) and 962 nM at Recombinant IKKβ (setting [1]).

`COC(=O)Nc1cc(-c2cc(C#CC(C)(C)O)c3[nH]nc(N)c3c2)ccn1` [Example 180, Methyl (4-(3-amino-7-(3-hydroxy-3-methylbut-1-yn-1-yl)-1H-indazol-5-yl)pyridin-2-yl)carbamate]: the Ki at Recombinant IKKα (setting [1]) came out at 5 nM; at Recombinant IKKβ (setting [1]), 826 nM.

Consider `COC(=O)Nc1cc(-c2cc(C#CC(C)(C)N)c3[nH]nc(N)c3c2)ccn1` [Example 181, Methyl (4-(3-amino-7-(3-amino-3-methylbut-1-yn-1-yl)-1H-indazol-5-yl)pyridin-2-yl)carbamate1], for which the Ki on Recombinant IKKα (setting [1]) was found to be 20 nM; on Recombinant IKKβ (setting [1]), 515 nM.

Regarding `COC(=O)Nc1cc(-c2cc(C#CC(C)(C)OC)c3[nH]nc(N)c3c2)ccn1` [Example 182, Methyl (4-(3-amino-7-(3-methoxy-3-methylbut-1-yn-1-yl)-1H-indazol-5-yl)pyridin-2-yl)carbamate], the Ki is 34 nM on Recombinant IKKα (setting [1]) and 363 nM on Recombinant IKKβ (setting [1]).

Turning to `COC(=O)Nc1cc(-c2cc(C#CCN3CCOCC3)c3[nH]nc(N)c3c2)ccn1` [Example 183, Methyl (4-(3-amino-7-(3-morpholinoprop-1-yn-1-yl)-1H-indazol-5-yl)pyridin-2-yl)carbamate], the Ki at Recombinant IKKα (setting [1]) is 47 nM; on Recombinant IKKβ (setting [1]), 721 nM.

For `CNC(=O)Nc1cc(-c2cc(C#CC(C)(C)C)c3[nH]nc(N)c3c2)ccn1` [Example 186, 1-(4-(3-Amino-7-(3,3-dimethylbut-1-yn-1-yl)-1H-indazol-5-yl)pyridin-2-yl)-3-methylurea], the Ki at Recombinant IKKα (setting [1]) was 34 nM; at Recombinant IKKβ (setting [1]) it was 3490 nM.

On to `CCNC(=O)Nc1cc(-c2cc(C#CC(C)(C)C)c3[nH]nc(N)c3c2)ccn1` [Example 187, 1-(4-(3-Amino-7-(3,3-dimethylbut-1-yn-1-yl)-1H-indazol-5-yl)pyridin-2-yl)-3-ethylurea], for which the values for the Ki on Recombinant IKKα (setting [1]) and on Recombinant IKKβ (setting [1]) were 438 nM and 8100 nM, respectively.

For the molecule `CC(C)(C)C#Cc1cc(-c2ccnc(NC(=O)Nc3ccccc3)c2)cc2c(N)n[nH]c12` [Example 189, 1-(4-(3-Amino-7-(3,3-dimethylbut-1-yn-1-yl)-1H-indazol-5-yl)pyridine-2-yl)-3-phenylurea], the Ki on Recombinant IKKα (setting [2]) was 113 nM; on Recombinant IKKβ (setting [2]), 19300 nM.

As to `COC(=O)Nc1cc(-c2cc(C#CC(C)(C)C)c3[nH]nc(N)c3c2)ccn1` [Example 190, Methyl (4-(3-amino-7-(3,3-dimethylbut-1-yn-1-yl)-1H-indazol-5-yl)pyridin-2-yl)carbamate], the Ki on Recombinant IKKα (setting [2]) turned out to be 12 nM; at Recombinant IKKβ (setting [2]) it was 1170 nM.

For `CCOC(=O)Nc1cc(-c2cc(C#CC(C)(C)C)c3[nH]nc(N)c3c2)ccn1` [Example 191, Ethyl (4-(3-amino-7-(3,3-dimethylbut-1-yn-1-yl)-1H-indazol-5-yl)pyridin-2-yl)carbamate], the Ki amounted to 20 nM at Recombinant IKKα (setting [2]) and 1590 nM at Recombinant IKKβ (setting [2]).

Consider `CC(C)(C)C#Cc1cc(-c2ccnc(NS(C)(=O)=O)c2)cc2c(N)n[nH]c12` [Example 194, N-(4-(3-amino-7-(3,3-dimethylbut-1-yn-1-yl)-1H-indazol-5-yl)pyridin-2-yl)methanesulfonamide], for which the Ki on Recombinant IKKα (setting [2]) was 373 nM; on Recombinant IKKβ (setting [2]), 4900 nM.

With `CC(=O)Nc1cc(-c2cc(-c3ccncc3)c3[nH]nc(N)c3c2)ccn1` [Example 197, N-(4-(3-Amino-7-(pyridin-4-yl)-1H-indazol-5-yl)pyridin-2-yl)acetamide], the Ki at Recombinant IKKα (setting [2]) was found to be 25 nM; at Recombinant IKKβ (setting [2]), 70 nM.

Regarding `Nc1n[nH]c2c(-c3ccoc3)cc(-c3ccnc4[nH]ccc34)cc12` [Example 199, 7-(Furan-3-yl)-5-(1H-pyrrolo[2,3-b]pyridin-4-yl)-1H-indazol-3-amine], the results for the Ki at Recombinant IKKα (setting [2]) and at Recombinant IKKβ (setting [2]) were 6 nM and 45 nM, respectively.

Regarding `Nc1n[nH]c2c(C#CCO)cc(-c3ccnc4[nH]ccc34)cc12` [Example 205, 3-(3-Amino-5-(1H-pyrrolo[2,3-b]pyridin-4-yl)-1H-indazol-7-yl)prop-2-yn-1-ol], the Ki amounted to 366 nM on Recombinant IKKα (setting [2]) and 3100 nM at Recombinant IKKβ (setting [2]).

The values above are taken from patent US20250304576A1 (Cancer Research Technology Limited, priority 2022, published 2025).
